Holding throughout (assay): NCI tumour cell line growth inhibition, 48 h
Test [1] relates to ACHN.
Test [2] relates to BT-549.
Test [3] has as its system COLO 205.
For test [4], the system named is KM12.
In test [5] the test system is MDA-MB-231.
In test [6] the test system is MDA-MB-435.
The test system of test [7] is NCI-H522.
Test [8] relates to NCI/ADR-RES.
For test [9], the system named is OVCAR-5.
The subject of test [10] is RPMI-8226.
For test [11], the system named is RXF 393.
For test [12], the system named is SF-295.
In test [13] the test system is SF-539.
In test [14] the test system is SK-MEL-2.
Test [15] has as its system SW-620.
Test [16] concerns TK-10.
Test [17] has as its system UACC-257.
Test [18] relates to UO-31.
The subject of test [19] is PC-3.
In test [20] the test system is NCI-H460.

This note sets out measurements from ChEMBL document CHEMBL1201862, “PubChem BioAssay data set” (2004).

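Briefly, cells in 96-well plates were exposed to five compound concentrations for 48 h, and endpoints were estimated by linear interpolation. GI50: concentration for 50% inhibition of growth.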 Activity calls are given as the source filed them. No stated cut-off is given here; in the data, active = GI50 up to about 1.1 µM and inactive = higher.

Take `COc1ccc(-c2cc3ccccc3oc2=O)cc1OC`: the GI50 in [1], in test [2], in test [3], in test [4], in [5] and in test [6] was > 100 µM (inactive) throughout. The GI50 was > 100 µM (inactive) in test [7]; > 100 µM (inactive) in [8]; > 100 µM (inactive) in test [9]; 44.6 µM (inactive) in test [10]; > 100 µM (inactive) in [11]; > 100 µM (inactive) in test [12]. The GI50 in test [13], in test [14], in test [15], in [16], in test [17] and in [18] was > 100 µM (inactive) in each case.
`Cc1ccsc1/C=N/Nc1cc(C)c2ccccc2n1`: the GI50 in test [1] is 12.9 µM (inactive); in test [2] it was 21 µM (inactive); in [3], 5.92 µM (inactive); in test [4] it was 15.6 µM (inactive); in [5] it was 0.637 µM (active); in test [6], 14 µM (inactive). In addition, the GI50 in test [8] was 13.9 µM (inactive); in test [9], 24.3 µM (inactive); in [19], 14.7 µM (inactive); in test [10] it was 3.28 µM (inactive); in test [11], 20.7 µM (inactive); in test [12] it was 3.04 µM (inactive). Besides, the GI50 is 17.9 µM (inactive) in test [14]; 17.2 µM (inactive) in test [15]; 14.7 µM (inactive) in test [16]; 6.78 µM (inactive) in test [17]; 10.4 µM (inactive) in test [18].
With `O=C1CCCCCCCCCCC1CN1CCOCC1` (centres undefined), the GI50 in [1], in [2], in test [3], in test [4], in [5] and in test [6] was > 100 µM (inactive) throughout. The GI50 in test [7], in [9], in [19], in test [10], in [11] and in [12] was > 100 µM (inactive) throughout. Also, the GI50 in [13], in [15], in test [16], in test [17] and in test [18] was > 100 µM (inactive) in each case.
Turning to `C=C1CC(Cn2cc(C)c(=O)[nH]c2=O)(c2ccc(Cl)cc2)OC1=O` (centres undefined), the GI50 in test [1] was 3.83 µM (inactive); in test [2], 1.51 µM (inactive); in test [3], 1.42 µM (inactive); in test [4], 13.6 µM (inactive); in test [5] it was 3.05 µM (inactive); in [6], 3.85 µM (inactive). Besides, the GI50 in test [20] is 15.8 µM (inactive); in test [7], 0.594 µM (active); in test [8], 3.98 µM (inactive); in test [9], 14.9 µM (inactive); in test [19], 3.08 µM (inactive); in test [10] it was 0.414 µM (active). Moreover, the GI50 in [12] is 9.64 µM (inactive); in test [13], 10.9 µM (inactive); in test [14], 2.12 µM (inactive); in [15], 1.44 µM (inactive); in test [16], 1.68 µM (inactive); in test [17] it was 1.4 µM (inactive). Further, the GI50 in test [18] was 12.9 µM (inactive).
With `NNC(=O)c1ccc(-n2nnc(C(=O)NN)c2C(=O)NN)cc1`, the GI50 in test [1], in test [2], in test [3], in test [4], in test [5] and in test [6] was > 100 µM (inactive) in each case. Further, the GI50 in test [20], in test [8], in [9], in test [19], in [10] and in test [12] was > 100 µM (inactive) throughout. For the same compound, the GI50 in [14], in test [16], in test [17] and in test [18] was > 100 µM (inactive) each time.
With `CC(C)(C)c1cc(C(C)(C)C)c(P=C(Cl)Cl)c(C(C)(C)C)c1` (centres undefined), the GI50 in [1], in test [2], in test [3], in test [4], in [5] and in test [6] was > 100 µM (inactive) each time. For the same compound, the GI50 in [20], in test [7], in test [8], in test [9], in test [19] and in test [10] was > 100 µM (inactive) throughout. The GI50 in test [12], in test [13], in test [14], in test [15], in test [16] and in test [17] was > 100 µM (inactive) each time. Further, the GI50 in test [18] is > 100 µM (inactive).
Regarding `CN(C)c1ccc(/C=N/N=C2\C(=O)Nc3c(Cl)cc(Cl)cc32)cc1`, the GI50 in [1] is 97.9 µM (inactive); in [2] it was 36.6 µM (inactive); in test [3], 52.6 µM (inactive); in test [4], 10.1 µM (inactive); in [5] it was 32.5 µM (inactive); in test [6] it was 22.5 µM (inactive). The GI50 is 41 µM (inactive) in test [20]; 20.2 µM (inactive) in test [8]; > 100 µM (inactive) in test [9]; 29.5 µM (inactive) in test [19]; 59.3 µM (inactive) in test [11]; 32.9 µM (inactive) in test [12]. The GI50 in [13] is 39.5 µM (inactive); in test [14], 32.1 µM (inactive); in test [15], 35.6 µM (inactive); in test [16], 94.8 µM (inactive); in test [17] it was > 100 µM (inactive); in [18], 22.9 µM (inactive).
As to `CCOC(=O)C1C(c2ccc(OC)cc2)c2c(nn(-c3ccccc3)c2O)CC1(C)O` (centres undefined), the GI50 in test [1] was 23 µM (inactive); in test [2], 0.0159 µM (active); in test [3], 16 µM (inactive); in test [4], 7.1 µM (inactive); in [5], 59.2 µM (inactive); in test [6], 3.02 µM (inactive). The GI50 in test [20] was 5.48 µM (inactive); in test [7], 50 µM (inactive); in test [8] it was 42.5 µM (inactive); in [9] it was > 100 µM (inactive); in test [19], 7.5 µM (inactive); in test [10] it was 2.29 µM (inactive). Besides, the GI50 in test [12] was 2.29 µM (inactive); in test [13], 92.7 µM (inactive); in test [14], 93.8 µM (inactive); in test [15] it was 18.5 µM (inactive); in [16], 50 µM (inactive); in [17], 3.31 µM (inactive). Further, the GI50 in test [18] is 11 µM (inactive).
For the compound `NNC(=O)Cn1ccnn1`, the GI50 in test [1], in test [2], in [3], in test [4], in test [5] and in [6] was > 100 µM (inactive) throughout. Further, the GI50 in [20], in test [7], in [8], in [9], in [19] and in test [10] was > 100 µM (inactive) each time. For the same compound, the GI50 in test [12], in [14], in [15], in test [16] and in test [17] was > 100 µM (inactive) each time.
In the case of `O=C(O)c1ccc2nc(-c3ccccn3)c(-c3ccccn3)nc2c1`, the GI50 in test [1], in [2], in test [3], in test [4], in [5] and in [6] was > 100 µM (inactive) in each case. In addition, the GI50 in test [20], in [8], in test [19], in [10], in [11] and in test [12] was > 100 µM (inactive) throughout. The GI50 in [13], in [14], in [15], in [16], in test [17] and in test [18] was > 100 µM (inactive) each time.
On to `O=C1Cc2c([nH]c3c(Cl)cccc23)-c2ccccc2N1`, for which the GI50 in test [1], in test [2], in test [3], in [4], in test [5] and in test [6] was > 100 µM (inactive) throughout. In addition, the GI50 in test [20], in test [7], in test [9], in [19], in test [10] and in test [12] was > 100 µM (inactive) each time. Moreover, the GI50 in test [13], in test [15], in test [16] and in test [18] was > 100 µM (inactive) throughout.
